Assays:
HCV 1b genotype replicon = assay: HCV replicon assay, qRT-PCR (HCV RNA detection), genotype 1b replicon EC50; format: cell-based; settings: Hepatitis C virus, read-out: 1b EC50
Source text: HCV replicon cell lines (kindly provided by R. Bartenschlager) isolated from colonies as described by Lohman et al. (Lohman et al. (1999) Science 285: 110-113, expressly incorporated by reference in its entirety) and used for all experiments. The HCV replicon has the nucleic acid sequence set forth in EMBL Accession No.: AJ242651, the coding sequence of which is from nucleotides 1801 to 8406.
The coding sequence of the published HCV replicon was synthesized and subsequently assembled in a modified plasmid pBR322 (Promega, Madison, Wis.) using standard molecular biology techniques. […]
EC50 values of single agent compounds were determined by HCV RNA detection using quantitative RT-PCR, according to the manufacturer's instructions, with a TAQMAN® One-Step RT-PCR Master Mix Reagents Kit (Cat #AB 4309169, Applied Biosystems) on an ABI Model 7500 thermocycler. EC50 values of combinations are similarly determined by HCV RNA detection using quantitative RT-PCR. The TAQMAN primers to use for detecting and quantifying HCV RNA obtained from Integrated DNA Technologies. HCV RNA is normalized to GAPDH RNA levels in drug-treated cells, which is detected and quantified using the Human GAPDH Endogenous Control Mix (Applied Biosystems, AB 4310884E). […] Chemical agent cytotoxicity is evaluated using an MTS assay according to the manufacturer's directions (Promega). […]

HCV 1a genotype replicon = assay: HCV replicon assay, qRT-PCR (HCV RNA detection), genotype 1a replicon EC50; format: cell-based; settings: Hepatitis C virus, read-out: 1a EC50

Row | SMILES | EC50 (HCV 1b genotype replicon) | EC50 (HCV 1a genotype replicon)
1 | COC(=O)N[C@H](C(=O)N1CCC[C@H]1c1nc(-c2ccc(-c3ccc(-c4c[nH]c([C@@H]5C[C@@]6(CCCO6)CN5C(=O)[C@@H](NC(=O)OC)C(C)C)n4)cc3)cc2)c[nH]1)C(C)C [Compound 83] | 0.019 nM | –
2 | COC(=O)N[C@H](C(=O)N1CCC[C@H]1c1ncc(-c2ccc(-c3ccc(-c4cnc([C@@H]5C[C@H](C6CC6)CN5C(=O)[C@@H](NC(=O)OC)C(C)C)[nH]4)cc3)cc2)[nH]1)C(C)C [Compound A83] | – | 0.07 nM
3 | COC(=O)N[C@H](C(=O)N1C[C@@H](C2CC2)C[C@H]1c1ncc(-c2ccc(-c3ccc(-c4cnc([C@@H]5C[C@H](C6CC6)CN5C(=O)[C@@H](NC(=O)OC)C(C)C)[nH]4)cc3)cc2)[nH]1)C(C)C [Compound A229] | 0.087 nM | –
